In patent US5593984A, “Cephalosporin derivatives” (Yuhan Corporation, priority 1992, dated 1997):
≈ marks a conversion by molar mass, not a printed value.

Tests used:
Format in all cases: cell-based
[1] = tested on: M. morganii DY-1; assay: MIC by agar dilution, M. morganii DY-1; conditions: Morganella morganii, DY1, 17 h; M. morganii DY-1; agar dilution, Mueller-Hinton agar; read-out: Minimal Inhibitory Concentration (MIC)
Procedure: (§1) These MIC values were determined by agar dilution method: that is, two-fold dilutions of each of the test compounds were made and dispersed in a Mueller-Hinton agar medium; standard test strain which had the 10^6 CFU (Colony Forming Unit) per ml was inoculated on the medium with microplanter (Toyo, Japan), and incubated at 35°-37° C. for 17±1 hours. The structures of Ceftazidime (CAZ) and Cefotaxime (CTX) which are used as control compounds are as follows: [drawing 12]

[2] = tested on: Staph. aureus C-5216; assay: MIC by agar dilution, Staph. aureus C-5216; conditions: Staphylococcus aureus, C5216, 17 h, Mueller-Hinton agar, read-out: Minimal Inhibitory Concentration (MIC)
Procedure: as §1

[3] = tested on: P. vulgaris NCTC 8313; assay: MIC by agar dilution, P. vulgaris NCTC 8313; conditions: Proteus vulgaris, NCTC8313, 17 h; P. vulgaris NCTC 8313; agar dilution, Mueller-Hinton agar; read-out: Minimal Inhibitory Concentration (MIC)
Procedure: as §1

[4] = tested on: S. epidermidis ATCC 12228; assay: MIC by agar dilution, S. epidermidis ATCC 12228; conditions: Staphylococcus epidermidis, ATCC12228, 17 h; S. epidermidis ATCC 12228; agar dilution, Mueller-Hinton agar; read-out: Minimal Inhibitory Concentration (MIC)
Procedure: as §1

[5] = tested on: E. coli NIHJ JC-2; assay: MIC by agar dilution, E. coli NIHJ JC-2; conditions: Escherichia coli, NIHJJC2, 17 h; E. coli NIHJ JC-2; agar dilution, Mueller-Hinton agar; read-out: Minimal Inhibitory Concentration (MIC)
Procedure: as §1

[6] = tested on: Staph. aureus ATCC 6538P; assay: MIC by agar dilution, Staph. aureus ATCC 6538P; conditions: Staphylococcus aureus, ATCC6538P, 17 h; Staph. aureus ATCC 6538P; agar dilution, Mueller-Hinton agar; read-out: Minimal Inhibitory Concentration (MIC)
Procedure: as §1

[7] = tested on: Ps. aeruginosa NCTC 10490; assay: MIC by agar dilution, Ps. aeruginosa NCTC 10490; conditions: Pseudomonas aeruginosa, NCTC10490, 17 h, Mueller-Hinton agar, read-out: Minimal Inhibitory Concentration (MIC)
Procedure: as §1

[8] = tested on: K. pneumoniae NCTC 9632; assay: MIC by agar dilution, K. pneumoniae NCTC 9632; conditions: Klebsiella pneumoniae, NCTC9632, 17 h; K. pneumoniae NCTC 9632; agar dilution, Mueller-Hinton agar; read-out: Minimal Inhibitory Concentration (MIC)
Procedure: as §1

[9] = tested on: Ps. aeruginosa DY-2; assay: MIC by agar dilution, Ps. aeruginosa DY-2; conditions: Pseudomonas aeruginosa, DY2, 17 h; Ps. aeruginosa DY-2; agar dilution, Mueller-Hinton agar; read-out: Minimal Inhibitory Concentration (MIC)
Procedure: as §1

[10] = tested on: Ps. aeruginosa ATCC 10145; assay: MIC by agar dilution, Ps. aeruginosa ATCC 10145; conditions: Pseudomonas aeruginosa, ATCC10145, 17 h, Mueller-Hinton agar, read-out: Minimal Inhibitory Concentration (MIC)
Procedure: as §1

[11] = tested on: E. coli DY-1; assay: MIC by agar dilution, E. coli DY-1; conditions: Escherichia coli, DY1, 17 h; E. coli DY-1; agar dilution, Mueller-Hinton agar; read-out: Minimal Inhibitory Concentration (MIC)
Procedure: as §1

[12] = tested on: Prov. stuartii IFO 12930; assay: MIC by agar dilution, Prov. stuartii IFO 12930; conditions: Providencia stuartii, IFO12930, 17 h, Mueller-Hinton agar, read-out: Minimal Inhibitory Concentration (MIC)
Procedure: as §1

[13] = tested on: Ent. cloacae IFO 13535; assay: MIC by agar dilution, Ent. cloacae IFO 13535; conditions: Enterobacter cloacae, IFO13535, 17 h; Ent. cloacae IFO 13535; agar dilution, Mueller-Hinton agar; read-out: Minimal Inhibitory Concentration (MIC)
Procedure: as §1

[14] = tested on: Ser. marcescens IFO 12648; assay: MIC by agar dilution, Ser. marcescens IFO 12648; conditions: Serratia marcescens, IFO12648, 17 h; Ser. marcescens IFO 12648; agar dilution, Mueller-Hinton agar; read-out: Minimal Inhibitory Concentration (MIC)
Procedure: as §1

[15] = tested on: Staph. aureus C-5113; assay: MIC by agar dilution, Staph. aureus C-5113; conditions: Staphylococcus aureus, C5113, 17 h, Mueller-Hinton agar, read-out: Minimal Inhibitory Concentration (MIC)
Procedure: as §1

[16] = tested on: Staph. aureus Smith; assay: MIC by agar dilution, Staph. aureus Smith; conditions: Staphylococcus aureus, 17 h, Mueller-Hinton agar, read-out: Minimal Inhibitory Concentration (MIC)
Procedure: as §1

[17] = tested on: Ent. aerogenes IFO 12979; assay: MIC by agar dilution, Ent. aerogenes IFO 12979; conditions: Klebsiella aerogenes, IFO12979, 17 h, Mueller-Hinton agar, read-out: Minimal Inhibitory Concentration (MIC)
Procedure: as §1

[18] = tested on: E. coli No. 29; assay: MIC by agar dilution, E. coli No. 29; conditions: Escherichia coli, 17 h; E. coli No. 29; agar dilution, Mueller-Hinton agar; read-out: Minimal Inhibitory Concentration (MIC)
Procedure: as §1

[19] = tested on: B. subtilis ATCC 6633; assay: MIC by agar dilution, B. subtilis ATCC 6633; conditions: Bacillus subtilis, ATCC6633, 17 h; B. subtilis ATCC 6633; agar dilution, Mueller-Hinton agar; read-out: Minimal Inhibitory Concentration (MIC)
Procedure: as §1

[20] = tested on: Staph. aureus C-57; assay: MIC by agar dilution, Staph. aureus C-57; conditions: Staphylococcus aureus, C57, 17 h, Mueller-Hinton agar, read-out: Minimal Inhibitory Concentration (MIC)
Procedure: as §1

| MIC [1] [µg/mL] | MIC [2] [µg/mL] | MIC [3] [µg/mL] | MIC [4] [µg/mL] | MIC [5] [µg/mL] | MIC [6] [µg/mL] | MIC [7] [µg/mL] | MIC [8] [µg/mL] | MIC [9] [µg/mL] | MIC [10] [µg/mL] | MIC [11] [µg/mL] | MIC [12] [µg/mL] | MIC [13] [µg/mL] | MIC [14] [µg/mL] | MIC [15] [µg/mL] | MIC [16] [µg/mL] | MIC [17] [µg/mL] | MIC [18] [µg/mL] | MIC [19] [µg/mL] | MIC [20] [µg/mL] | Structure (SMILES) |
| --- | --- | --- | --- | --- | --- | --- | --- | --- | --- | --- | --- | --- | --- | --- | --- | --- | --- | --- | --- | --- |
| 0.012 (≈ 0.0199 µM) | 0.78 (≈ 1.29 µM) | ≤ 0.006 | 0.05 (≈ 0.0828 µM) | 0.025 (≈ 0.0414 µM) | 0.1 (≈ 0.166 µM) | 0.2 (≈ 0.331 µM) | 0.025 (≈ 0.0414 µM) | 3.13 (≈ 5.18 µM) | 3.13 (≈ 5.18 µM) | ≤ 0.006 | 0.025 (≈ 0.0414 µM) | 0.2 (≈ 0.331 µM) | 0.05 (≈ 0.0828 µM) | 0.39 (≈ 0.646 µM) | 0.1 (≈ 0.166 µM) | 0.05 (≈ 0.0828 µM) | ≤ 0.006 | 0.1 (≈ 0.166 µM) | 12.5 (≈ 20.7 µM) | CCON=C(C(=O)NC1C(=O)N2C(C(=O)[O-])=C(C[n+]3ccn4c(SCCO)ccc4c3)CSC12)c1csc(N)n1 (stereo not drawn) [Ex. 9, 7-β-[(Z)-2-(2-aminothiazol-4-yl)-2-ethoxyiminoacetamido]-3-[6-(2-HYDROXYETHYLTHIO)PYRROLO[1,2-a]pyrazinium-2-yl]methyl-3-cephem-4-carboxylate] |
| ≤ 0.006 | 0.78 (≈ 1.42 µM) | ≤ 0.006 | 0.025 (≈ 0.0456 µM) | ≤ 0.006 | 0.2 (≈ 0.365 µM) | 0.39 (≈ 0.712 µM) | ≤ 0.006 | 3.13 (≈ 5.71 µM) | 0.78 (≈ 1.42 µM) | ≤ 0.006 | ≤ 0.006 | 0.05 (≈ 0.0912 µM) | 0.012 (≈ 0.0219 µM) | 0.78 (≈ 1.42 µM) | 0.39 (≈ 0.712 µM) | ≤ 0.006 | ≤ 0.006 | 0.1 (≈ 0.182 µM) | 12.5 (≈ 22.8 µM) | CON=C(C(=O)NC1C(=O)N2C(C(=O)[O-])=C(C[n+]3ccn4c(Cl)ccc4c3)CSC12)c1csc(N)n1 (stereo not drawn) [Ex. 11, 7-β-[(Z)-2-(2-aminothiazol-4-yl)-2-methoxyiminoacetamido]-3-(6-chloropyrrolo[1,2-a]pyrazinium-2-yl)methyl-3-cephem-4-carboxylate] |
| 0.025 (≈ 0.0448 µM) | 1.56 (≈ 2.8 µM) | 0.012 (≈ 0.0215 µM) | 0.1 (≈ 0.179 µM) | 0.025 (≈ 0.0448 µM) | 0.39 (≈ 0.699 µM) | 0.2 (≈ 0.359 µM) | 0.025 (≈ 0.0448 µM) | 3.13 (≈ 5.61 µM) | 1.56 (≈ 2.8 µM) | 0.025 (≈ 0.0448 µM) | ≤ 0.006 | 0.39 (≈ 0.699 µM) | 0.05 (≈ 0.0897 µM) | 1.56 (≈ 2.8 µM) | 0.78 (≈ 1.4 µM) | 0.025 (≈ 0.0448 µM) | 0.012 (≈ 0.0215 µM) | 0.1 (≈ 0.179 µM) | 25 (≈ 44.8 µM) | CON=C(C(=O)NC1C(=O)N2C(C(=O)[O-])=C(C[n+]3ccn4c(C(=O)O)ccc4c3)CSC12)c1csc(N)n1 (stereo not drawn) [Ex. 17, 7-β-[(Z)-2-(2-aminothiazol-4-yl)-2-methoxyiminoacetamido]-3-(6-carboxypyrrolo[1,2-a]pyrazinium-2-yl)methyl-3-cephem-4-carboxylate] |
| 0.05 (≈ 0.0905 µM) | 0.78 (≈ 1.41 µM) | ≤ 0.006 | 0.012 (≈ 0.0217 µM) | 0.025 (≈ 0.0452 µM) | 0.1 (≈ 0.181 µM) | 0.78 (≈ 1.41 µM) | 0.1 (≈ 0.181 µM) | 12.5 (≈ 22.6 µM) | 0.78 (≈ 1.41 µM) | 0.012 (≈ 0.0217 µM) | 0.012 (≈ 0.0217 µM) | 0.2 (≈ 0.362 µM) | 0.05 (≈ 0.0905 µM) | 1.56 (≈ 2.82 µM) | 0.78 (≈ 1.41 µM) | 0.012 (≈ 0.0217 µM) | 0.05 (≈ 0.0905 µM) | 0.2 (≈ 0.362 µM) | 12.5 (≈ 22.6 µM) | CO/N=C(\C(=O)N[C@@H]1C(=O)N2C(C(=O)[O-])=C(C[n+]3ccn4c(C#N)ccc4c3C)CS[C@H]12)c1csc(N)n1 [Ex. 43, 7-β-[(Z)-2-(2-aminothiazol-4-yl)-2-methoxyiminoacetamido]-3-(1-methyl-6-cyanopyrrolo[1,2-a]pyrazinium-2-yl)methyl-3-cephem-4-carboxylate] |
